How the values were obtained:
human mGluR5 = target: T1, human mGluR5 (Homo sapiens, UniProt P41594); assay: Functional in vitro activity at human mGluR5 receptors (FLIPR calcium assay, antagonism of glutamate EC90 response); format: cell-based; details: AV-12 cells expressing recombinant human mGluR5a and rat EAAT1, relative IC50, read-out: IC50 measured at mGluR5
T1 construct: expressed in transfected cells; host or cells: AV-12 cells (ATCC) containing the rat EAAT1 glutamate transporter
Text: Functional in Vitro Activity at Human mGluR5; and mGluR1; Receptors
The activation of G-protein coupled receptors (GPCRS) that are coupled to GTP-binding protein alpha q (Gq proteins) results in a change in intracellular calcium concentration. This functional response can be measured in a kinetic assay using calcium-sensitive dyes and a fluorescent imaging plate reader using a standard technique known as FLIPR (MDS Analytical Technologies, Sunnyvale, Calif.). Stable cell line preparation and assay techniques are adapted from Kingston, A. E., et. al. (1995) Neuropharmacology 34: 887-894. […]
For the functional assays, cells are seeded in growth medium lacking selection antibiotics at a density of 65K per well into 96-well, black/clear bottom, poly-D-lysine coated microplates and incubated for 18-20; hours prior to the experiment. […] The antagonist effects of compounds are quantified in the FLIPR instrument in 10-point dose curves by comparing the peak fluorescent responses to the agonist glutamate in the presence and absence of compound. Specifically, the compound effect is measured as maximal minus minimal peak heights in relative fluorescent units corrected for basal fluorescence as measured in the absence of glutamate. […]

[1] = test system: stress-induced hyperthermia in rats; assay: Attenuation of stress-induced hyperthermia in rats; format: in vivo, rat; details: male Fischer F-344 rats, p.o., 60 min pretreatment, T2-T1 rectal temperature
Text: Attenuation of Stress-Induced Hyperthermia in Rats
In many anxiety disorders, hyperthermia occurs as part of the pathology and is considered a symptom of the disease. Compounds which attenuate stress-induced hyperthermia in animals are believed to be useful in treating anxiety disorders in humans.
The conventional and minimally-invasive method for analyzing stress-induced hyperthermia is by measuring body temperature, and stress-induced increases in body temperature, via rectal thermometer. Male Fischer F-344; rats (Harlan, Indianapolis, Ind., USA) weighing between 275-350; g are tested. All animals are individually-housed with food and automated water available ad libitum, and maintained on a 12; h light/dark cycle (lights on at 06:00). Animals are fasted for approximately 12-18; hours before the experiment, which is conducted during the light phase. […]
After the pretreatment period, rats are taken individually to a brightly lit adjacent room where baseline body temperatures are determined by insertion of a rectal probe lubricated with mineral oil. Body temperature is assessed using a PHYSITEMP BAT-12® Microprobe Thermometer with a PHYSITEMP RET-2® rat rectal probe (Physitemp Instruments Inc., Clifton, N.J., USA). […] Ten minutes later a second body temperature measurement is recorded (T2). […]

T1 sequence (P41594 21-1180 isoform P41594-2 limits assumed): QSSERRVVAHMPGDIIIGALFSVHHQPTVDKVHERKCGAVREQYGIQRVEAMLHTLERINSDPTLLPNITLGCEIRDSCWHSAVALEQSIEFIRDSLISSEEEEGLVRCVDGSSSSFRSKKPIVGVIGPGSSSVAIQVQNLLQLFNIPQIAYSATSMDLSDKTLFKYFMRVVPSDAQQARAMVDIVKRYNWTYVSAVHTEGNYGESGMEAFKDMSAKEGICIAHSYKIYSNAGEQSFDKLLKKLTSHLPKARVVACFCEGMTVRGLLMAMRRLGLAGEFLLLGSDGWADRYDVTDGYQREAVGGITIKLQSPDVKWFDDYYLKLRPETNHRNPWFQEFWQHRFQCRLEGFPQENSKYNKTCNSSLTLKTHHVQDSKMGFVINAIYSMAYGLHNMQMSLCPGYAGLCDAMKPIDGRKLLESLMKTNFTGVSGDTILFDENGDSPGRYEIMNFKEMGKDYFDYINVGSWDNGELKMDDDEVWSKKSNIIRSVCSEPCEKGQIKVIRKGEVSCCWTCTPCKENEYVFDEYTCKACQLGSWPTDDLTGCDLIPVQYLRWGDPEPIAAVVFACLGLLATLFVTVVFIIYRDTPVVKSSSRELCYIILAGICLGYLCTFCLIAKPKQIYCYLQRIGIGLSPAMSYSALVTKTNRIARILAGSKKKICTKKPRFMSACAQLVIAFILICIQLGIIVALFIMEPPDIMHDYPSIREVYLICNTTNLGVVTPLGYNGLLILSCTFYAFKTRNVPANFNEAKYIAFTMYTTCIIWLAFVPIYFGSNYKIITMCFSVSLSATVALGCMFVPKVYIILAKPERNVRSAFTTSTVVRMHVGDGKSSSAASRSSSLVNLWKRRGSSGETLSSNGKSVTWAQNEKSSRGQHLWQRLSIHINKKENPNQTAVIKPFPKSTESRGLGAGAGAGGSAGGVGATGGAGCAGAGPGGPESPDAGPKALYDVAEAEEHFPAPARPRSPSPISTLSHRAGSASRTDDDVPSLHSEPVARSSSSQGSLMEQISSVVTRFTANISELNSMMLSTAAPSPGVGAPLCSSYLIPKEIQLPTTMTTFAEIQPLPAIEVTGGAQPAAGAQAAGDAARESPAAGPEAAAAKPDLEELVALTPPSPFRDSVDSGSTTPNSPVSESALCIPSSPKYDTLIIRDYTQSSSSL

Row | IC50 (human mGluR5) [nM] | melting point [°C] | Structure (SMILES) | T35 dose (dose producing a 35% reduction in stress-induced hyperthermic response relative to vehicle) [1] [mg/kg]
1 | 9.5 | – | CCc1cccc(-c2c(-c3ccc4nn(C)cc4c3)nsc2NC(=O)[C@@H]2C[C@H]2C)n1.Cl [Example 2, (1R,2R)-2-methyl-cyclopropanecarboxylic acid [4-(6-ethyl-pyridin-2-yl)-3-(2-methyl-2H-indazol-5-yl)-isothiazol-5-yl]-amide hydrochloride] | 3.0
2 | – | 159.4 | CCc1cccc(-c2c(-c3ccc4nn(C)cc4c3)nsc2NC(=O)[C@@H]2C[C@H]2C)n1 [Example 22, (1R,2R)-2-methyl-cyclopropanecarboxylic acid [4-(6-ethyl-pyridin-2-yl)-3-(2-methyl-2H-indazol-5-yl)-isothiazol-5-yl]-amide] | –
3 | – | 142 to 144 | CC(C)c1cccc(-c2c(-c3ccc4nn(C)cc4c3)nsc2NC(=O)[C@@H]2C[C@H]2C)n1 [Example 23, (1R,2R)-2-methyl-cyclopropanecarboxylic acid [4-(6-isopropyl-pyridin-2-yl)-3-(2-methyl-2H-indazol-5-yl)-isothiazol-5-yl]-amide] | –

— patent US7932274B2, “3-indazolyl-4-pyridylisothiazoles” (Eli Lilly and Company, priority 2008, dated 2011)
